# Measured values published in US6469062B2, “Use of 15-keto-prostaglandins in promoting bile secretion” (Sucampo A.G., priority 2000, dated 2002).
# Tests used:
# dogs and cats = settings: cited from earlier work
# [1] = tested on: porcine of which liver was replaced by transplantation; settings: intraportal administration; cited from earlier work
# implanted liver = settings: added to liver preservation solution; rat liver transplantation model; cited from earlier work
# [2] = tested on: anoxia/re-oxygenation perfused rat liver; assay: Test Example 3: bile flow recovery of anoxia/re-oxygenation perfused rat liver; settings: 10 μM added at re-oxygenation after 20 minutes of anoxia; vs vehicle
# Method: Isolated perfused liver sample was prepared by the same manner as described in the test example 2. Each livers of test and control groups was perfused with Krebs-Ringer solution saturated with 95% N2 and 5% CO2 for 20 minutes to expose the liver oxygen-free condition. After that, Krebs-Ringer solution saturated with 95% O2 and 5% CO2 was perfused to re-oxygenize the liver. At the re-oxygenization step, 10 μM of the test compound 1 was added to the Krebs-Ringer solution for the test group.
# rat isolated liver [3] = assay: Test Example 4: bile flow of rat isolated liver, compound added to preservation solution; settings: 10 μM added to U-W preservation solution, 4° C., 16 hours storage; 40 minutes reperfusion
# Source text: Male Wister Rats were anesthetized with pentobarital sodium and hepatic-portal region was exposed by abdominal midline incision. The common bile duct was cannulated and the portal stem was inserted with a 19 gauge surflo® needle equipped with a three way stopcock. […] Treitz' ligament, the ligament around the liver, and diaphragm were cut and the liver was removed to the outside of the body and subjected to extracoporeal perfusion. The liver was subjected to a fifteen minutes of pre-perfusion until its oxygen consumption achieved to constant and then, the perfusate was exchanged with University of Wisconsin solution (U-W solution) at 4° C. Immediately after finish of the exchange, the liver connected with the three-way stopcock was removed from the perfusion cycle and the inlet was clamped. Then the liver was putted into the U-W solution at the same temperature and stored for 16 hours. […] During the reperfusion period, bile flow was determined every 5 minutes.
# In the above perfusion protocol, 10 μM of test compound 1 or test compound 2 (13,14-dihydro-15-keto-16,16-difluoro-17(R)-methyl-prostaglandin E1) were added to the U-W solution to determine the effects of these drugs on recovery of bile flow.
# perfused rat liver = assay: Test Example 2: bile flow of isolated perfused rat liver
# Method: Male Wister rats were used. Each rat was cannulated for collection of bile under pentobarbital sodium anesthesia. A catheter was inserted and fixed in the portal vein. Krebs-Ringer solution saturated with 95% O2 and 5% CO2 (pH 7.4, 37° C.) was infused via the catheter at a constant flow rate of 4.0 ml/min/g liver weight by means of peristaltic pump to perfuse the liver. The liver was removed under perfusion. In case where the bile secretion was necessary to maintain being the physiological level, the liver was perfused with Krebs-Ringer solution supplemented with sodium taurocolate (30 μmol/l). For the test group animals, the test compound 1 was added to the Krebs-Ringer solution. Bile of the each animals including test and control groups was collected in every 5 minutes.
# normal rats = assay: Test Example 1: bile flow in normal rats after oral administration; format: in vivo, rat; settings: 100 μg/kg orally 3 times a day for 7 days; bile collected on day 8, 1 to 2 hours after cannulation; vs vehicle
# Method: Male Wister rats were used. 100 μg/kg of test compound 1 (13,14-dihydro-15-keto-16, 16-difluoro-18(S)-methyl-prostaglandin E1) was administered orally to the test group animals (n=8) 3 times a day for 7days. To the control group animals (n=7), the same volume of the vehicle, i.e. 0.01% polysorbate 80, 0.5% ethanol in distilled water was administered. At the next day after the final administration (day 8), the common bile duct of the respective rat was cannulated under ether anesthesia and the rat was placed in ball man gauge for 1 hour to recover from anesthesia. The bile discharged over one hour time period, i.e. from 1 to 2 hours of the cannulation, was collected and determined bile flow.
# rat isolated liver [4] = assay: Test Example 5: bile flow of cold preserved rat isolated liver, compound added to rinse solution; settings: added to Krebs-Ringer rinse solution perfused for 40 minutes after 16-hour cold storage
# Method: The perfusion protocol of the Test Example 4 was repeated except for the test compound 1 and the test compound 2 were added to the Krebs-Ringer solution, i.e. the rinse solution perfused for 40 minute's to determine the recovery of the bile flow.
compound,measurement,setting,value
CCCCC[C@H](O)/C=C/[C@H]1C=CC(=O)[C@@H]1CCCCCCC(=O)O [PGA1],cholagogic effect,dogs and cats,cholagogic effect
"CCCCC[C@H](O)/C=C/[C@H]1[C@H](O)CC(=O)[C@@H]1CCCCCCC(=O)O [PGE1, prostaglandin E1]",bile flow,[1],increased the bile flow
same,cholagogic effect,dogs and cats,cholagogic effect
CCCCC[C@H](O)/C=C/[C@H]1[C@H](O)CC(=O)[C@@H]1C/C=C\CCCC(=O)O [PGE2],cholagogic effect,dogs and cats,cholagogic effect
CCCCC[C@H](O)/C=C/[C@@H]1[C@@H](C/C=C\CCCC(=O)O)[C@@H](O)C[C@H]1O [PGF2a],cholagogic effect,dogs and cats,cholagogic effect
CCCC[C@H](C)C[C@H](O)/C=C/[C@@H]1C2CC(CCCCC(=O)O)=CC2C[C@H]1O (stereo partly shown) [TEI-9063],bile producing activity of the implanted liver,implanted liver,improved bile producing activity
CCCCC[C@H](O)/C=C/[C@@H]1[C@H]2C/C(=C/CCCC(=O)O)O[C@H]2C[C@H]1O [prostacyclin],cholagogic effect,dogs and cats,cholagogic effect
"CC[C@H](C)CC(F)(F)C(=O)CC[C@H]1[C@H](O)CC(=O)[C@@H]1CCCCCCC(=O)O [test compound 1, 13,14-dihydro-15-keto-16,16-difluoro-18(S)-methyl-prostaglandin E1]",bile flow recovery after anoxia/re-oxygenation,[2],significantly increased the bile flow
same,bile flow at the reperfusion step,rat isolated liver [3],increased the bile flow at the reperfusion step significantly
same,bile flow of the perfused rat liver,perfused rat liver; compound added to Krebs-Ringer perfusate,significantly increased bile flow
same,"cholagogic effect, dose dependence",perfused rat liver; under the presence of bile acid (sodium taurocolate 30 μmol/l),dose dependent cholagogic effect
same,"bile flow, presence (TC(+)) or absence (TC(−)) of bile acid",perfused rat liver; with or without bile acid in the perfusate,increased the bile flow irrespective of the presence or absence of bile acid
same,normal rat bile flow,normal rats,significantly increased
same,bile flow in reperfusion of cold preserved rat liver,rat isolated liver [4],significantly increased
"CCCC(C)C(F)(F)C(=O)CCC1C(O)CC(=O)C1CCCCCCC(=O)O [test compound 2, 13,14-dihydro-15-keto-16,16-difluoro-17(R)-methyl-prostaglandin E1]",bile flow at the reperfusion step,rat isolated liver [3],increased the bile flow at the reperfusion step significantly
same,bile flow in reperfusion of cold preserved rat liver,rat isolated liver [4],significantly increased
